Assay results as given in patent US10064839B2, “Methods of treating liver diseases” (Zafgen, Inc., priority 2012, dated 2018).
pEC50: −log10 of the molar value.

Key:
recombinant human MetAP2 = biological target: T1, recombinant human MetAP2 (Homo sapiens, UniProt P50579); assay: Recombinant human MetAP2 inhibition assay (MAS substrate, Amplex red fluorescence); type: biochemical; conditions: first value of the cell; read-out: MetAP2/MetAP1 IC50 (nM): MetAP2
T1 construct: made in house; host or cells: Sf9 insect cells
T1 sequence (P50579 whole entry): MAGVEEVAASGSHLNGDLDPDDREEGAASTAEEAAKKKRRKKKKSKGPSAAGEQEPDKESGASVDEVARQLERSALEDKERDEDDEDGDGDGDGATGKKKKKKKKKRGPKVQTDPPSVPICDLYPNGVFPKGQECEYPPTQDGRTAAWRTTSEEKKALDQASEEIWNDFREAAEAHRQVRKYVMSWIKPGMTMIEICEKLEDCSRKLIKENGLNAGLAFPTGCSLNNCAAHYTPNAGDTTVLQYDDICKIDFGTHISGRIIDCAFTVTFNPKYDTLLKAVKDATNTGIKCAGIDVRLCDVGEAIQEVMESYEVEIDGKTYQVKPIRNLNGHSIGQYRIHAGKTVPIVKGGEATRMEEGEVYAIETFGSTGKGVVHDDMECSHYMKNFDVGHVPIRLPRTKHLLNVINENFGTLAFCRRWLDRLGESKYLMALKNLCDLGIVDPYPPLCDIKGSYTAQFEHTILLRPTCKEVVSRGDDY
Method: Compounds are tested for their capacity to inhibit recombinant human MetAP2 activity using the following assay.
Human recombinant MetAP2 expressed in Sf9 cells followed by affinity purification and EDTA treatment to remove endogenous active site cation was dialysed against MnCl2 to produce the manganese enzyme used in the assay. The assay was carried out for 30 minutes at 25° C. in 50 mM HEPES buffer containing 100 mM NaCl, pH 7.5 the presence of 0.75 mM Methionine-Alanine-Serine (MAS) substrate and 50 µg/ml amino acid oxidase using a dilution of purified MetAP2 giving >3-fold signal: noise. Cleavage of the substrate by MetAP2 and oxidation of free methionine by amino acid oxidase was detected and quantified using fluorescence generated by Amplex red (10-acetyl-3,7-dihydroxyphenoxazine) in combination with horseradish peroxidase which detects H2O2 released during the oxidation step. The fluorescent signal was detected using a multiwell fluorimeter. Compounds were diluted in DMSO prior to addition to assay buffer, the final DMSO concentration in the assay being 1%.
IC50 values are calculated using the XLfit software package (version 2.0.5).

HT1080 = HT1080 EC50; type: cell-based; conditions: Homo sapiens, HT-1080; second of two values 28/8, key not given
[1] = system: Cell cycle (G1 attenuation); assay: Cell cycle (G1 attenuation); type: cell-based
CYP3A4 = CYP3A4 (Homo sapiens, UniProt P08684); assay: CYP3A4 inhibition with pre-incubation; type: in vitro ADME; conditions: footnote to CYP IC50, HLM
Sequence of CYP3A4 (P08684 whole entry): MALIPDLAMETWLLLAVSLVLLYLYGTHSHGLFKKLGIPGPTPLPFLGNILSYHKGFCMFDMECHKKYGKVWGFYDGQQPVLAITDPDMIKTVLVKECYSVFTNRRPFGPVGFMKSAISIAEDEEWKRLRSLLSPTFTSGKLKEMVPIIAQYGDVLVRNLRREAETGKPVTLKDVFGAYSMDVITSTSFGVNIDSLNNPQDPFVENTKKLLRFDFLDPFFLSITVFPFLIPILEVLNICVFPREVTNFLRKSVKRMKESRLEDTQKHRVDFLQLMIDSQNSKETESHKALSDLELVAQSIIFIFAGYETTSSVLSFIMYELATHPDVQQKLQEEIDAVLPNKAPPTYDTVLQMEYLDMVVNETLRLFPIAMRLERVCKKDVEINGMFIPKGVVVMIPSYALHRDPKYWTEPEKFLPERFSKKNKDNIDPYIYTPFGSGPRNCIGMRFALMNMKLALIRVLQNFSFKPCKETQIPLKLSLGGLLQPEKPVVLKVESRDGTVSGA

[2] = Plasma protein binding, human; type: in vitro ADME; conditions: read-out: Plasma protein binding (h/r/m, %): h (converted)
72 receptors and enzymes = assay: CEREP screen; conditions: at 10 μM across 72 receptors and enzymes
[3] = i.v. and p.o. exposure study, rat; type: in vivo
Method: Mouse, rat and dog studies were conducted to assess i.v. and p.o. (oral) exposure.

[4] = system: Diet induced obese (DIO) C57BL6 mice; assay: Diet induced obese mouse study of compound A; type: in vivo
Method: Diet induced obese (DIO) C57BL6 mice were provided with varying doses of compound A and fumagillin (fum). Tissue biomarkers in peri-renal fat, mesenteric fat and the liver were measured.
(FIG. 3). Decrease in plasma insulin in mice, after once or twice a day administration of compound A vs. vehicle is also observed (FIG. 4).

In the case of `CCN(CC)C/C=C\c1cc(F)ccc1S(=O)(=O)Nc1ccc2c(c1C(=O)O)OC[C@@H]1C[C@H]21` (single isomer, unassigned) [Example 12], the IC50 (recombinant human MetAP2) was 25 nM, the pEC50 (HT1080) was 8.10 and the “Cell cycle (G1 attenuation, nM)” value [1] was 3 nM. The “CYP3A4 signal with pre-incubation” value (CYP3A4) was “*CYP3A4 signal observed with pre-incubation”, the fraction unbound [2] was 0.228 and the “CEREP screen, inhibition” value (72 receptors and enzymes) was less than 35% inhibition at 10 μM. For the same molecule, the Kp ([3]; liver/plasma, po, read-out: liver/plasma ratio) was 39, the clearance ([3]; plasma, iv) was 54 mL/min/kg and the half-life ([3]; plasma, iv, read-out: Plasma T1/2 (converted)) was 1.2 h. For the same molecule, the Vd ([3]; plasma, iv, read-out: Vss) was 3.4 L/kg, the AUC ([3]; plasma, po) was 356 ng·h/mL and the bioavailability ([3]; plasma, po) was 22%. The “Expression of genes implicated in pathogenesis of fatty liver and fibrosis (liver mRNA microarray)” value ([4]; 3 mg/kg/bid×10 days, DIO obese mice, FIG. 6) was “favorably regulated”, the “Tissue biomarkers in peri-renal fat, mesenteric fat and the liver” value ([4]; DIO C57BL6 mice, varying doses, FIG. 1) was “primarily targets the liver” and the Liver weight ([4]; FIG. 5) was “reduction”. The “Mesenteric adipose tissue weight” value ([4]; FIG. 5) was “reduction”, the “Change in bodyweight after 10 days” value ([4]; obese mice, increasing doses over 10 days, vs vehicle, FIG. 2) was “marked decrease in body weight” and the Blood cholesterol ([4]; obese mice, vs vehicle, FIG. 3) was “marked lowering”. The Blood glucose ([4]; obese mice, vs vehicle, FIG. 3) was “marked lowering” and the Plasma insulin ([4]; once or twice a day administration vs vehicle, FIG. 4) was “Decrease”.
